Measurements: PubChem BioAssay AID248 (DTP/NCI, 2004)
“And” between values parts separate entries of the source, which are not always exact repeats. Identical values can stand only once. Inconclusive results and toxic doses are left out. Cut-off read from the data, not from the text of the source: active = T/C of 150% or more; inactive = T/C below 125%.

Tested on: L1210 leukemia ip in BDF1 mice, survival T/C
Experiment: NCI In Vivo Anticancer Drug Screen. Data for tumor model L1210 Leukemia (intraperitoneal) in B6D2F1 (BDF1) mice
Conditions: endpoint: mean survival time, higher = longer survival
Procedure, shortened: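 Ratio derived from survival: compound-dosed mice over vehicle-dosed mice, all bearing a transplantable tumor.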

[1] = dose: 100.0 mg/kg/injection, schedule: Q01DX009 (ip), vehicle: Klucel (hydroxypropylcellulose) (HPC)
[2] = dose: 100.0 mg/kg/injection, schedule: Q04DX003 (ip), vehicle: Klucel (hydroxypropylcellulose) (HPC)
[3] = dose: 200.0 mg/kg/injection, schedule: Q01DX009 (ip), vehicle: Klucel (hydroxypropylcellulose) (HPC)
[4] = dose: 200.0 mg/kg/injection, schedule: Q04DX003 (ip), vehicle: Klucel (hydroxypropylcellulose) (HPC)
[5] = dose: 400.0 mg/kg/injection, schedule: Q01DX009 (ip), vehicle: Klucel (hydroxypropylcellulose) (HPC)
[6] = dose: 400.0 mg/kg/injection, schedule: Q04DX003 (ip), vehicle: Klucel (hydroxypropylcellulose) (HPC)
[7] = dose: 100.0 mg/kg/injection, schedule: Q04DX003 (ip), vehicle: saline with Tween-80
[8] = dose: 200.0 mg/kg/injection, schedule: Q04DX003 (ip), vehicle: saline with Tween-80
[9] = dose: 100.0 mg/kg/injection, schedule: Q01DX001 (ip), vehicle: carboxymethylcellulose (CMC)
[10] = dose: 200.0 mg/kg/injection, schedule: Q01DX001 (ip), vehicle: carboxymethylcellulose (CMC)
[11] = dose: 400.0 mg/kg/injection, schedule: Q01DX001 (ip), vehicle: carboxymethylcellulose (CMC)
[12] = dose: 100.0 mg/kg/injection, schedule: Q04DX002 (ip), vehicle: Klucel (hydroxypropylcellulose) (HPC)
[13] = dose: 200.0 mg/kg/injection, schedule: Q04DX002 (ip), vehicle: Klucel (hydroxypropylcellulose) (HPC)
[14] = dose: 400.0 mg/kg/injection, schedule: Q04DX003 (ip), vehicle: saline with Tween-80
[15] = dose: 100.0 mg/kg/injection, schedule: Q01DX001 (ip), vehicle: saline
[16] = dose: 100.0 mg/kg/injection, schedule: Q04DX003 (ip), vehicle: saline
[17] = dose: 200.0 mg/kg/injection, schedule: Q04DX003 (ip), vehicle: saline
[18] = dose: 400.0 mg/kg/injection, schedule: Q04DX003 (ip), vehicle: saline
[19] = dose: 100.0 mg/kg/injection, schedule: Q01DX009 (ip), vehicle: saline with Tween-80
[20] = dose: 200.0 mg/kg/injection, schedule: Q01DX009 (ip), vehicle: saline with Tween-80

Measured: T/C

Cc1ccc(C(=O)N/N=C/C(CC(O)C(O)CO)=N/NC(=O)c2ccc(C)cc2)cc1 (stereo not drawn)
inactive: dose: 100.0 mg/kg/injection, schedule: Q04DX003 (ip), vehicle: alcohol 93 % of control | dose: 200.0 mg/kg/injection, schedule: Q04DX003 (ip), vehicle: alcohol 96 % of control

O=c1[nH]c(-c2ccccc2N=NN2CCCCC2)nc2ccccc12
inactive: dose: 25.0 mg/kg/injection, schedule: Q04DX002 (ip), vehicle: saline with Tween-80 100 % of control | dose: 50.0 mg/kg/injection, schedule: Q04DX002 (ip), vehicle: saline with Tween-80 103 % of control | dose: 200.0 mg/kg/injection, schedule: Q04DX002 (ip), vehicle: saline with Tween-80 103 % of control | dose: 400.0 mg/kg/injection, schedule: Q04DX002 (ip), vehicle: saline with Tween-80 88 % of control

C[N+](C)(C)c1ncncn1
inactive: dose: 12.0 mg/kg/injection, schedule: Q04DX003 (ip), vehicle: saline 98 % of control | dose: 25.0 mg/kg/injection, schedule: Q04DX003 (ip), vehicle: saline 98 % of control | dose: 50.0 mg/kg/injection, schedule: Q04DX003 (ip), vehicle: saline 104 % of control

O=[N+]([O-])c1ccc(S(=O)c2ccc([N+](=O)[O-])cc2)cc1
inactive: [1] 108 % of control | [2] 98 % of control | [3] 95 % of control | [4] 98 % of control | [5] 101 % of control | [6] 93 % of control

O=C(c1ccccc1)N1CC2CC3OC3c3cccc1c32 (stereo not drawn)
inactive: [7] 88 % of control | [8] 92 % of control

N#Cc1ccc2c(c1)Cc1cc([N+](=O)[O-])ccc1-2
inactive: [9] 100 % of control | [10] 105 % of control | [11] 91 % of control

CCOC(=O)CCCN(c1ccccc1CC(=O)OCC)S(C)(=O)=O
inactive: [1] 103 % of control | [2] 102 % of control | [3] 94 % of control | [4] 112 % of control | [5] 97 % of control | [6] 100 % of control

COc1ccc2c(c1)C(Br)N(S(=O)(=O)c1ccc(C)cc1)CCC2=O (stereo not drawn)
inactive: dose: 25.0 mg/kg/injection, schedule: Q01DX009 (ip), vehicle: other 97 % of control | dose: 50.0 mg/kg/injection, schedule: Q01DX009 (ip), vehicle: other 95 % of control | dose: 100.0 mg/kg/injection, schedule: Q01DX009 (ip), vehicle: other 92 % of control | dose: 100.0 mg/kg/injection, schedule: Q04DX003 (ip), vehicle: other 92 % of control | dose: 200.0 mg/kg/injection, schedule: Q01DX009 (ip), vehicle: other 104 % of control | dose: 200.0 mg/kg/injection, schedule: Q04DX003 (ip), vehicle: other 97 % of control | dose: 400.0 mg/kg/injection, schedule: Q04DX003 (ip), vehicle: other 89 % of control

Cc1c(F)cccc1NCC(=O)NN
inactive: [12] 101 % of control | [13] 115 % of control

Cn1c(C=O)cc(=O)[nH]c1=S
inactive: dose: 50.0 mg/kg/injection, schedule: Q01DX009 (ip), vehicle: Klucel (hydroxypropylcellulose) (HPC) 92 % of control | [1] 93 % of control | [2] 100 % of control | [3] 93 % of control | [4] 105 % of control | [6] 100 % of control

COP(=O)(OC)C(OC(=O)C(C)(C)Br)=C(C)C
inactive: [7] 102 % of control | [8] 106 % of control | [14] 113 % of control

O=C(OCCl)c1ccc(Cl)cc1Cl
inactive: [7] 87 % of control | [14] 88 % of control

COC(=O)Cc1cccc(=O)c(O)c1C(=O)OC
inactive: dose: 50.0 mg/kg/injection, schedule: Q01DX001 (ip), vehicle: carboxymethylcellulose (CMC) 102 % of control | [9] 102 % of control | [10] 104 % of control | [11] 102 % of control

COc1ccc2c(c1)C(=O)C1CC3(CCC21)OCCO3 (stereo not drawn)
inactive: [1] 101 % of control | [2] 109 % of control | [3] 97 % of control | [4] 93 % of control | [5] 95 % of control | [6] 100 % of control

COc1cc2c(cc1O)CCN(C)C2Cc1ccc(OC)c(OC)c1 (stereo not drawn)
inactive: dose: 75.0 mg/kg/injection, schedule: Q01DX001 (ip), vehicle: carboxymethylcellulose (CMC) 95 % of control | dose: 150.0 mg/kg/injection, schedule: Q01DX001 (ip), vehicle: carboxymethylcellulose (CMC) 94 % of control

Cc1ccc(C(c2ccc(C)c(C)c2)C(O)C(O)C(O)CO)cc1C (stereo not drawn)
inactive: [15] 94 % of control and 100 % of control | dose: 200.0 mg/kg/injection, schedule: Q01DX001 (ip), vehicle: saline 102 % of control and 96 % of control | dose: 400.0 mg/kg/injection, schedule: Q01DX001 (ip), vehicle: saline 97 % of control and 96 % of control

O=C(Nc1cccc(C(F)(F)F)c1)Nc1ccccc1C(F)(F)F
inactive: dose: 100.0 mg/kg/injection, schedule: Q01DX009 (ip), vehicle: gum acacia 101 % of control | dose: 200.0 mg/kg/injection, schedule: Q01DX009 (ip), vehicle: gum acacia 101 % of control | dose: 400.0 mg/kg/injection, schedule: Q01DX009 (ip), vehicle: gum acacia 104 % of control

[Br][La]([Br])[Br]
inactive: [16] 89 % of control | [17] 91 % of control | [18] 91 % of control

Cc1ccc(NC(=O)OCCOc2ccc(Cl)cc2Cl)cc1[N+](=O)[O-]
inactive: dose: 50.0 mg/kg/injection, schedule: Q01DX009 (ip), vehicle: saline with Tween-80 97 % of control | [19] 104 % of control | [20] 104 % of control

Oc1ccc(C(O)(c2ccccc2)c2ccc(O)c3ccccc23)c2ccccc12
inactive: [19] 96 % of control | [20] 91 % of control

COc1cc(C)c(C)cc1/C(C)=C(/C)C(=O)O (tested in a mixture with another compound)
inactive: dose: 100.0 mg/kg/injection, schedule: Q01DX001 (ip), vehicle: saline with Tween-80 100 % of control | dose: 200.0 mg/kg/injection, schedule: Q01DX001 (ip), vehicle: saline with Tween-80 100 % of control | dose: 400.0 mg/kg/injection, schedule: Q01DX001 (ip), vehicle: saline with Tween-80 103 % of control

c1ccc2c3c(ccc2c1)OCN(C12CC4CC(CC(C4)C1)C2)C3
inactive: [16] 98 % of control | [17] 105 % of control | [18] 89 % of control

CSc1nc2c(c(=O)[nH]1)C1C=C(C)CCC1C(C)(C)C2 (stereo not drawn)
inactive: [12] 98 % of control | [13] 96 % of control

COc1ccc(C)c(CN(C)C)c1
inactive: dose: 50.0 mg/kg/injection, schedule: Q01DX001 (ip), vehicle: saline 107 % of control | [15] 101 % of control

Nc1ccc2c(c1)Cc1cc(NC(=O)C(F)(F)F)ccc1-2
inactive: [7] 100 % of control | [8] 96 % of control | [14] 92 % of control

CCCCC#CC(=O)OC
inactive: dose: 75.0 mg/kg/injection, schedule: Q01DX001 (ip), vehicle: other 106 % of control | dose: 150.0 mg/kg/injection, schedule: Q01DX001 (ip), vehicle: other 97 % of control | dose: 300.0 mg/kg/injection, schedule: Q01DX001 (ip), vehicle: other 101 % of control
